The source of these data is PubChem BioAssay (NCI).

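Following 48 hours of exposure in 96-well plates, responses at five concentrations were used to interpolate endpoints linearly. The concentration for 50% growth inhibition is given as GI50. TGI denotes the concentration required for complete inhibition of growth.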 A value given as a limit tells only on which side of the number the result lay.

Test systems include HL-60(TB) leukemia; K-562 leukemia; KM12 colon; MOLT-4 leukemia; NCI-H23 lung; OVCAR-5 ovarian; SK-MEL-2 melanoma; SW-620 colon; TK-10 renal; U251 CNS.
Common to all, as to test: inhibition of tumour cell growth, NCI panel, 48 h

For `Cn1c2ccccc2c2nnc(N/N=C/c3ccccn3)nc21`, the GI50 in the assay with HL-60(TB) leukemia is 0.222 µM; in the assay with K-562 leukemia, 1.75 µM; in the assay with KM12 colon it was 0.535 µM; in the assay on MOLT-4 leukemia, 0.271 µM; in the assay with NCI-H23 lung, 0.382 µM; in the assay on OVCAR-5 ovarian it was 1.27 µM. For the same molecule, the GI50 in the assay with SK-MEL-2 melanoma is 0.953 µM; with SW-620 colon, 0.509 µM; in the assay on TK-10 renal it was 0.413 µM; in the assay with U251 CNS, 0.357 µM. The TGI is 3.85 µM in the assay on HL-60(TB) leukemia; > 39.6 µM in the assay on K-562 leukemia; > 38.3 µM with KM12 colon; > 22.6 µM in the assay with NCI-H23 lung; > 72.4 µM in the assay on OVCAR-5 ovarian; 16.9 µM in the assay with SK-MEL-2 melanoma. Moreover, the TGI with SW-620 colon was > 82.1 µM; in the assay on TK-10 renal it was > 57.8 µM; in the assay on U251 CNS it was 14 µM.
For the molecule `CNC1NC(=O)c2ccccc2N1Cc1ccc(F)cc1` (stereo unspecified), the TGI in the assay on HL-60(TB) leukemia, with K-562 leukemia, in the assay on KM12 colon, with MOLT-4 leukemia, in the assay with NCI-H23 lung and in the assay on OVCAR-5 ovarian was > 100 µM each time. Further, the TGI in the assay with SK-MEL-2 melanoma, with SW-620 colon, in the assay with TK-10 renal and in the assay on U251 CNS was > 100 µM throughout.
Take `Cc1nn2c(/C=C3/C(=O)Nc4ccc(Cl)cc43)c(-c3ccccc3)nc2s1`: the GI50 in the assay with HL-60(TB) leukemia is 28.8 µM; with K-562 leukemia, 3.85 µM; with KM12 colon, 2.11 µM; in the assay with MOLT-4 leukemia, 6.96 µM; in the assay on NCI-H23 lung, 4.1 µM; in the assay with OVCAR-5 ovarian, 8.38 µM. In addition, the GI50 was 4.04 µM with SK-MEL-2 melanoma, 4.51 µM in the assay on SW-620 colon, 3.3 µM in the assay with TK-10 renal and 1.73 µM with U251 CNS. Besides, the TGI is > 100 µM in the assay with HL-60(TB) leukemia; 20.6 µM with K-562 leukemia; 5.88 µM in the assay on KM12 colon; 37.1 µM in the assay on MOLT-4 leukemia; > 100 µM in the assay with NCI-H23 lung; 25.9 µM in the assay with OVCAR-5 ovarian. In addition, the TGI in the assay on SK-MEL-2 melanoma came out at 18.4 µM; with SW-620 colon, 19.7 µM; in the assay on TK-10 renal, 8.79 µM; in the assay on U251 CNS, 3.71 µM.
As for `COc1ccc(/C=C2\CNC/C(=C\c3ccc(OC)cc3)C2=O)cc1`, the TGI in the assay with HL-60(TB) leukemia was 38.5 µM; in the assay with K-562 leukemia, 65.2 µM; in the assay with KM12 colon, > 100 µM; with MOLT-4 leukemia it was > 100 µM; in the assay with NCI-H23 lung, 60.1 µM; in the assay with OVCAR-5 ovarian, > 100 µM. Besides, the TGI in the assay on SK-MEL-2 melanoma, with SW-620 colon, with TK-10 renal and in the assay on U251 CNS was > 100 µM each time.
With `COc1ccc(C2=C(c3cn(C)c4ccccc34)C(=O)NC2=O)cc1OC`, the GI50 in the assay on HL-60(TB) leukemia was 6.27 µM; in the assay with K-562 leukemia it was 4.92 µM; in the assay with KM12 colon, 6.34 µM; in the assay with MOLT-4 leukemia it was 8.84 µM; in the assay with NCI-H23 lung it was 10.3 µM; in the assay with OVCAR-5 ovarian, > 25 µM. Moreover, the GI50 is 6.18 µM with SK-MEL-2 melanoma, 6.96 µM in the assay on SW-620 colon, 9.2 µM with TK-10 renal and 7.62 µM in the assay with U251 CNS. For the same molecule, the TGI with HL-60(TB) leukemia is 17.2 µM; in the assay on K-562 leukemia it was > 25 µM; in the assay with KM12 colon, > 25 µM; in the assay on MOLT-4 leukemia, > 25 µM; with NCI-H23 lung, > 25 µM; in the assay on OVCAR-5 ovarian it was > 25 µM. The TGI was > 18.6 µM in the assay on SK-MEL-2 melanoma, > 25 µM in the assay with SW-620 colon, > 25 µM in the assay with TK-10 renal and > 25 µM with U251 CNS.
Consider `O=C(Nc1ccc(Nc2ccncc2)cc1)c1ccc(Nc2ccnc3ccc([N+](=O)[O-])cc23)cc1`, for which the GI50 with HL-60(TB) leukemia, in the assay with K-562 leukemia, in the assay on KM12 colon, in the assay with MOLT-4 leukemia, with NCI-H23 lung and with OVCAR-5 ovarian was > 100 µM throughout. Further, the GI50 in the assay with SK-MEL-2 melanoma was > 100 µM; in the assay on SW-620 colon, > 100 µM; in the assay on TK-10 renal, > 100 µM; in the assay on U251 CNS, 30.1 µM. The TGI with HL-60(TB) leukemia, in the assay with K-562 leukemia, with KM12 colon, in the assay on MOLT-4 leukemia, with NCI-H23 lung and in the assay on OVCAR-5 ovarian was > 100 µM each time. Also, the TGI in the assay with SK-MEL-2 melanoma, in the assay with SW-620 colon, in the assay on TK-10 renal and in the assay on U251 CNS was > 100 µM each time.
Turning to `COC[C@H]1OC(=O)c2coc3c2[C@@]1(C)C1=C(C3=O)[C@@H]2CCC(=O)[C@@]2(C)C[C@H]1OC(C)=O`, the GI50 in the assay with HL-60(TB) leukemia was 2.98 µM; in the assay on U251 CNS, 36.8 µM. Further, the TGI in the assay on HL-60(TB) leukemia was 53.7 µM; in the assay with K-562 leukemia, > 100 µM; in the assay on KM12 colon, > 100 µM; in the assay on MOLT-4 leukemia it was 42.3 µM; in the assay with NCI-H23 lung it was > 100 µM; with OVCAR-5 ovarian, > 100 µM. For the same molecule, the TGI in the assay with SK-MEL-2 melanoma is 16.6 µM; in the assay with SW-620 colon it was > 100 µM; in the assay with TK-10 renal it was > 100 µM; with U251 CNS it was > 100 µM.
For `COc1ccc(/C=C(\C#N)c2cc(OC)c3c(c2)OCO3)cc1`, the GI50 is 0.0128 µM in the assay with HL-60(TB) leukemia; < 0.01 µM in the assay with K-562 leukemia; < 0.01 µM in the assay on KM12 colon; 0.0402 µM in the assay on MOLT-4 leukemia; < 0.0143 µM in the assay on NCI-H23 lung; 0.0797 µM in the assay with OVCAR-5 ovarian. Besides, the GI50 is < 0.017 µM with SK-MEL-2 melanoma, < 0.01 µM in the assay with SW-620 colon, 0.56 µM with TK-10 renal and < 0.0179 µM in the assay on U251 CNS. Moreover, the TGI in the assay with HL-60(TB) leukemia is 54.7 µM; with K-562 leukemia it was > 100 µM; with KM12 colon it was 1.66 µM; in the assay with MOLT-4 leukemia, > 100 µM; with NCI-H23 lung, 24.3 µM; with OVCAR-5 ovarian, 80.9 µM. Also, the TGI with SK-MEL-2 melanoma was 2.81 µM; with SW-620 colon, > 100 µM; in the assay on TK-10 renal, 41.1 µM; in the assay on U251 CNS it was 69.9 µM.
